For assay [1], the target named is T1, carbamoyl-phosphate synthase 1 (Mus musculus, UniProt Q8C196).
T1 construct: from tissue; host or cells: mouse liver extract
T1 sequence (Q8C196 39-1500): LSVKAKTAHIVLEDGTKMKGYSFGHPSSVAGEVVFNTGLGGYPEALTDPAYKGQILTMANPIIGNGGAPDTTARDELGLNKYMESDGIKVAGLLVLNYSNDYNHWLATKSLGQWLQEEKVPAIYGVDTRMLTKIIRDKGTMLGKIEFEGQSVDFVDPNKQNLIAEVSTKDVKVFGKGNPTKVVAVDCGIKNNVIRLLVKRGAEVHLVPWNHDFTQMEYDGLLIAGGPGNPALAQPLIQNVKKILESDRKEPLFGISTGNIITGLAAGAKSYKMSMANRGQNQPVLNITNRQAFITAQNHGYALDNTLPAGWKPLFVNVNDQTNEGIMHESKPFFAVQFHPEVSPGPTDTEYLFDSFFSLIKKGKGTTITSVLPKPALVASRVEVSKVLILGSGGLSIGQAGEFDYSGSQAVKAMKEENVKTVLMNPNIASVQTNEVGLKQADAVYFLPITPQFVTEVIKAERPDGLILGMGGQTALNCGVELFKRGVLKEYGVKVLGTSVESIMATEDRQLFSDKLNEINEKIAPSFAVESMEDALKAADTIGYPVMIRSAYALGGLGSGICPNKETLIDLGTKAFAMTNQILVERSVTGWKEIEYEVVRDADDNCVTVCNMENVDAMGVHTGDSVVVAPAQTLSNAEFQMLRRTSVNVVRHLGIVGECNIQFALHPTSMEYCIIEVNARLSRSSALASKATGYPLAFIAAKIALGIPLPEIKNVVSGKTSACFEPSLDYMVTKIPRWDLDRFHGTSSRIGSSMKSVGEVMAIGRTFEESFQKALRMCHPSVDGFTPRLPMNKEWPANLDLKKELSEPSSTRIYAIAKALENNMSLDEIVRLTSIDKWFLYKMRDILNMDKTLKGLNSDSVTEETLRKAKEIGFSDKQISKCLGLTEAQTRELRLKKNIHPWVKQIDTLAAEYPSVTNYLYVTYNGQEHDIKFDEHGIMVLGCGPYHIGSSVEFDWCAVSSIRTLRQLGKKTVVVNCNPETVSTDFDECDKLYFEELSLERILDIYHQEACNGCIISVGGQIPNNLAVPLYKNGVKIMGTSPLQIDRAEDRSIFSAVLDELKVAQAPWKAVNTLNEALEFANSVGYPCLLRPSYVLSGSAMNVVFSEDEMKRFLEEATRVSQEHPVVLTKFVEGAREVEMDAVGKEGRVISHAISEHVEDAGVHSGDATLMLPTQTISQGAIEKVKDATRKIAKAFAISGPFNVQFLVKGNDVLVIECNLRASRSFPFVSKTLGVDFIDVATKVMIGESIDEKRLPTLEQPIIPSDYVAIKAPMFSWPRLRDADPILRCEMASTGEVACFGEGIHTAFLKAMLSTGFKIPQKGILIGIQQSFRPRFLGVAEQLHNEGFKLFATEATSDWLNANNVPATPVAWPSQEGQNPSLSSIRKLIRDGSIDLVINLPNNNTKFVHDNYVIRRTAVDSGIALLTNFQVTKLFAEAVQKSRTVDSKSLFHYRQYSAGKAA
The experiment in a line: LC/MS/MS identification of proteins from mouse liver extracts labeled with MTS-I-49. It is filed as biochemical. From the text: (§1) (1991) Irreversible inhibition of serine proteases by peptide derivatives of (alpha-aminoalkyl)phosphonate diphenyl esters. Biochemistry 30, 485-493). However, it has not been used for any proteomic applications. We used MTS-I-49 to label mouse liver extracts and analyze the labeled sample by both SDS-PAGE (FIG. 5B) and by direct chemical cleavage or on bead digestion.
(§2) After enrichment on immobilized avidin, each of the three labeled proteomes (FIG. 5b) was divided into two aliquots. One was prepared for LC-MS/MS analysis by “on bead” digestion, while the other was chemically eluted and digested “in solution.” Proteins identified in each tissue lysate are listed with their accession number and theoretical molecular weight (MW). To compare both approaches, the number of identified peptides and percentage of amino acid sequence coverage is listed for each protein.
(§3) Proteins in the above Table were identified by LC/MS/MS analysis of on bead digested or chemically eluted proteins from mouse liver extracts labeled with MTS-I-49. […] BLAST database searching identified it as liver carboxylesterase 4. A number of additional endogenously biotinylated proteins were identified in the on-bead digested sample.

The target of the next assay is T2, Liver carboxylesterase 4 (Mus musculus, UniProt Q91WU0).
T2 construct: from tissue; host or cells: mouse liver extract
T2 sequence (Q91WU0 18-561): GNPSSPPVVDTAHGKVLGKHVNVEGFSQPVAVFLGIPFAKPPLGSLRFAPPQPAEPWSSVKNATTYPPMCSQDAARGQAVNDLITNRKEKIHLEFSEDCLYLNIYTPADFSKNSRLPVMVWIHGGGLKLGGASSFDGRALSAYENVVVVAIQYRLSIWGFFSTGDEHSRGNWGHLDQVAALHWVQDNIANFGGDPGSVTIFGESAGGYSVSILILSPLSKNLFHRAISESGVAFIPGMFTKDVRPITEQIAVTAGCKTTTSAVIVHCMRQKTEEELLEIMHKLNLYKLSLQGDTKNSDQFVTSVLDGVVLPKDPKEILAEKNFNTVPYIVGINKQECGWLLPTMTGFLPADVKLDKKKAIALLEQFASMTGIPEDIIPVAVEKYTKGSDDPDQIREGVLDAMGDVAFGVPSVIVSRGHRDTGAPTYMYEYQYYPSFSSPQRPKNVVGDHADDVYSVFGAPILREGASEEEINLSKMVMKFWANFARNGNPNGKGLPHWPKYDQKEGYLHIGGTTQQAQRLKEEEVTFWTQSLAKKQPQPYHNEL
Described as above. It is filed as biochemical.
Excerpt: as §1, §2, §3

A short description of assay [2]: Background peptides, chemical elution versus on-bead digestion. The note with it: chemical elution compared with on-bead digestion. Also on record: species or system mouse. On the procedure:
as §2
Carboxylesterase 4 has not been characterized on a functional level and has never been confirmed to be catalytically active (Rawlings, N. D., Morton, F. R., and Barrett, A. J. (2006) MEROPS: the peptidase database. Nucleic Acids Res 34, D270-272.). […] Overall the level of background peptides was decreased by over 90%, when chemical elution was used for the sample preparation (as shown in the above Table). Although the number of carboxylesterase peptides identified was reduced compared to the on-bead sample we could still make a confident identification with nearly 40% coverage of peptide sequence.

The mark [3] stands for this setting: Liver carboxylesterase 4, chemically eluted, digested in solution.
Where [4] appears, read: Liver carboxylesterase 4, on bead digestion.

The structures appear in SMILES notation.

These results are taken from patent US8314215B2, “Mild chemically cleavable linker system” (The Board of Trustees of the Leland Stanford Junior …, priority 2006, dated 2012).

For the molecule `C[C@H](NC(=O)c1ccc(N=Nc2cc(CCNC(=O)CCCC[C@@H]3SC[C@@H]4NC(=O)N[C@@H]43)ccc2O)cc1)C(=O)N[C@@H](C)C(=O)NC(Cc1ccccc1)P(=O)(Oc1ccccc1)Oc1ccccc1` (stereo partly drawn) [MTS-I-49], in assay [1] (chemically eluted, digested in solution), the “Chemical Cleavage, number of identified peptides” value came to 0. In addition, in assay [1] (on bead digestion), the “On Bead Digestion, amino acid sequence coverage” value is 2 (2%) and the “On Bead Digestion, number of identified peptides” value is 2 (2%). Moreover, at Liver carboxylesterase 4 (setting [3]), the “Chemical Cleavage, amino acid sequence coverage” value came out at 38% and the “Chemical Cleavage, number of identified peptides” value was found to be 14. Moreover, on Liver carboxylesterase 4 (setting [4]), the “On Bead Digestion, amino acid sequence coverage” value turned out to be 51% and the “On Bead Digestion, number of identified peptides” value stood at 20. For the same molecule, the “target identification after chemical cleavage” value on Liver carboxylesterase 4 (mouse liver extracts, hypothetical protein identified by BLAST as liver carboxylesterase 4) is “primary probe target”. In addition, the “decrease of the level of background peptides” value in assay [2] is on record as “over 90%”.
